Measurements taken from US10040838B2, “CRHR2 peptide agonists and uses thereof” (JANSSEN PHARMACEUTICA NV, priority 2008, dated 2018).
Values joined by “and” are separate entries in the source; they are usually repeats but may differ in a detail not shown here. Identical values can stand only once. No end group written: not given here.

Assays:
human CRHR2 [1] = target: T1, human CRHR2 (Homo sapiens, UniProt Q13324); experiment: cAMP assay in h-CRHR2 transfected SK-N-MC cells; assay type: cell-based; settings: for Experimental nH / nH: Hill slope; for Experimental αmax: maximal asymptote
T1 construct: expressed in transfected cells
T1 sequence (Q13324 1-411): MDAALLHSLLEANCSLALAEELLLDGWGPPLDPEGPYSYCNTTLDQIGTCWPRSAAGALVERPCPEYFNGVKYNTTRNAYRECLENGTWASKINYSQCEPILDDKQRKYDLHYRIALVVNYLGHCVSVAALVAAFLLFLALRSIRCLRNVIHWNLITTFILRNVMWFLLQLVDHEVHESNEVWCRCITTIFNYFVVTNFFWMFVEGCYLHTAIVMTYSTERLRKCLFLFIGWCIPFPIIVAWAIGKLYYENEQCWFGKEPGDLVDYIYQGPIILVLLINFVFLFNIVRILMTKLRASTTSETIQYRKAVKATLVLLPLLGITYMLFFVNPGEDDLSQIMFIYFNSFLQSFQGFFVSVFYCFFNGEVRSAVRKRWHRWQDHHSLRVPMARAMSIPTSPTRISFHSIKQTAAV
Outline: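 Intracellular cAMP was read by competition with [125I]-cAMP for an anti-cAMP antibody after HCl lysis of human CRHR2-transfected SK-N-MC cells. Cells had been exposed to peptide, 1 pM to 10 μM, for 60 min at 37 °C in IBMX (10 μM) buffer. A50 and pA50 came from Hill fits; Log DR was computed against h-SCP within each batch.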

human CRHR2 [2] = target: T1, human CRHR2; experiment: Radioligand binding, membranes of SK-N-MC cells transfected with human CRHR2, [125I]-anti-sauvagine-30; settings: for CRHR2 nH: Table 15, slope of competition curve
Method: The binding profile of h-SCP (SEQ ID NO:1) at CRHR2 was determined in radioligand binding studies in a membrane preparation of SK-N-MC cells stably transfected with human CRHR2 using [^125I]-anti-sauvagine-30 as the radiolabel. […] The solution was then homogenized with a Polytron tissue grinder at a setting of 10 and 7×3 s (Brinkmann Instruments, Westbury, N.Y.). The homogenate was centrifuged at 4° Celsius at 800×g for 5 min with the pellet being discarded. The supernatant was re-centrifuged at 26,892×g for 25 min at 4° Celsius with the final pellet being re-suspended in assay buffer. All binding assays were conducted in 96-well Multiscreen GF/B filter plates (Millipore, Billericay, Mass., U.S.A.) that were pre-soaked in assay buffer with 0.3% PEI for 1 hour. […] The bound radioactivity was separated by filtration using a Multiscreen Resist manifold (Millipore Corp., Billerica, Mass., U.S.A). The filters were washed three times with ice-cold PBS at pH 7.5 and radioactivity retained on the filters was quantified by its liquid scintillation measured by a TopCount counter (Packard BioScience, Boston, Mass., U.S.A). All experiments were performed in triplicate. Data from individual competition curves were expressed as the percentage of specific [^125I]-anti-sauvagine-30 or)[^125I]-([…])-sauvagine binding (B) within each experiment.

[3] = CRHR2, Table 11, listed as h-SCP
[4] = CRHR2, Table 11, listed as h-SRP

Row | Compound | Experimental pA50 (human CRHR2 [1]; CRHR2, Table 11, 1 hr at 37° Celsius, listed as h-SCP) | Experimental nH (human CRHR2 [1]; [3]) | Experimental αmax (human CRHR2 [1]; [3]) | nH (human CRHR2 [1]; Table 12) | pA50 (human CRHR2 [1]; Table 12, amidation and N-terminal deletions, 3-5 replicate experiments) | pA50 (human CRHR2 [1]; Table 14) | nH (human CRHR2 [1]; Table 14) | EC50 (human CRHR2 [1]; text b184, read-out: concentration required for 50% maximum effect (A50)) | pA50 (human CRHR2 [1]; text b201-b202, N-terminal deletions, parent in one batch) | CRHR2 nH (human CRHR2 [2]) | competition curve / affinity states (human CRHR2 [2]; [125I]-anti-sauvagine-30 competition) | Experimental nH (human CRHR2 [1]; CRHR2, Table 11) | Experimental αmax (human CRHR2 [1]; CRHR2, Table 11) | Experimental nH (human CRHR2 [1]; [4]) | Experimental αmax (human CRHR2 [1]; [4])
1 | TKFTLSLDVPTNIMNLLFNIAKAKNLRAQAAANAHLMAQI-NH2 [SEQ ID NO: 1, TKFTLSLDVPTNIMNLLFNIAKAKNLRAQAAANAHLMAQI-NH2, reference compound] | 9.41 | 0.99 and 1.04 and 1.39 and 1.55 | 99.31 and 97.53 and 116.1 and 98.2 | 1.18 | 9.41 | 9.40 | 1.26 | 0.4 nM | 9.41±0.03 | 1.00 ± 0.04 | biphasic | – | – | – | –
2 | CC[C@H](C)[C@H](NC(=O)[C@H](CO)NC(=O)[C@H](CC(C)C)NC(=O)[C@@H]1CCCN1C(=O)[C@@H]1CCCN1C(=O)[C@H](CC(=O)O)NC(=O)[C@@H](N)CC(=O)O)C(=O)N[C@@H](CC(=O)O)C(=O)N[C@@H](CC(C)C)C(=O)N[C@H](C(=O)N[C@@H](Cc1ccccc1)C(=O)N[C@@H](Cc1c[nH]cn1)C(=O)N[C@@H](CC(C)C)C(=O)N[C@@H](CC(C)C)C(=O)N[C@@H](CCCNC(=N)N)C(=O)N[C@H](C(=O)N[C@@H](CC(C)C)C(=O)N[C@@H](CC(C)C)C(=O)N[C@@H](CCC(=O)O)C(=O)N[C@@H](CC(C)C)C(=O)N[C@@H](C)C(=O)N[C@@H](CCCNC(=N)N)C(=O)N[C@H](C(=O)N[C@@H](CCC(N)=O)C(=O)N[C@@H](CO)C(=O)N[C@@H](CCC(N)=O)C(=O)N[C@@H](CCCNC(=N)N)C(=O)N[C@@H](CCC(=O)O)C(=O)N[C@@H](CCCNC(=N)N)C(=O)N[C@@H](C)C(=O)N[C@@H](CCC(=O)O)C(=O)N[C@@H](CCC(N)=O)C(=O)N[C@@H](CC(N)=O)C(=O)N[C@@H](CCCNC(=N)N)C(=O)N[C@H](C(=O)N[C@H](C(=O)N[C@@H](Cc1ccccc1)C(=O)N[C@@H](CC(=O)O)C(=O)N[C@@H](CO)C(=O)N[C@H](C(N)=O)C(C)C)[C@@H](C)CC)[C@@H](C)CC)[C@@H](C)O)[C@@H](C)O)[C@@H](C)O [SEQ ID NO: 114, DDPPLSIDLTFHLLRTLLELARTQSQRERAEQNRIIFDSV-NH2] | – | – | – | – | – | – | – | – | – | 1.19 ± 0.14 | – | 1.07 | 110.5 | – | –
3 | HPGSRIVLSLDVPIGLLQILLEQARARAAREQATTNARILARV-NH2 [SEQ ID NO: 117, HPGSRIVLSLDVPIGLLQILLEQARAPAAREQATTNARILARV-NH2, reference compound] | – | – | – | – | – | – | – | – | – | 1.26 ± 0.14 | – | – | – | 1.08 and 1.06 and 0.99 | 113.5 and 108.7 and 98.56
